Experimental data as given in PMC4514850, “A Novel TGR5 Activator WB403 Promotes GLP-1 Secretion and Preserves Pancreatic β-Cells in Type 2 Diabetic Mice” (PLoS ONE, 2015).
Each block holds one molecule with its values, some of them ahead of it.

Legend:
TGR5 = conditions: moderate bile acids; ref [22], [34]; cited from earlier work
hTGR5 = molecular target: T1, hTGR5 (Homo sapiens, UniProt Q8TDU6); assay: human TGR5 CRE-luciferase assay in co-transfected 293T cells; type: cell-based
T1 construct: expressed in transfected cells; host or cells: 293T cells, transient transfection with pTGR5 (gift from Prof. Johan Auwerx)
T1 sequence (Q8TDU6 1-330): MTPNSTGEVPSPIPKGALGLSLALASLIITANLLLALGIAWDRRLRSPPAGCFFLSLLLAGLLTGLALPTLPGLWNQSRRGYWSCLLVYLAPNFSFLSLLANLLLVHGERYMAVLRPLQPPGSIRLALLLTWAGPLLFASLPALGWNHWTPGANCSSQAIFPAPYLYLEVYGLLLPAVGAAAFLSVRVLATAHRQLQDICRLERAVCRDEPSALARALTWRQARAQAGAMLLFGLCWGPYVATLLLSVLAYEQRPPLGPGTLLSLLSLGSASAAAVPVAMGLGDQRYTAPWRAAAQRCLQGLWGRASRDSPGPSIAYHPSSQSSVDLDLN
Method: For human TGR5 luciferase (luc) assay, 293T cells were co-transfected with pCRE-luc, pTGR5 (kind gift from Prof. Johan Auwerx, Ecole Polytechnique Fédérale de Lausanne, Lausanne, Switzerland) and pRenilla (Promega, USA). WB403 was added 5 h later. Cells were harvested after 16 h and subjected to luciferase analysis on Lumistar Optima chemiluminescent detector (BMG labtech, Germany). For cAMP testing, 293T cells transiently transfected with pTGR5 or pGPR119 (GeneCopoeia, USA) were washed by FBS-free DMEM, and stimulated with WB403 in FBS-free DMEM containing 3-isobutyl-1-methyl-xanthine (IBMX, Sigma). Cell lysates were collected 30 min later and used for cAMP ELISA assay. FLIPR Calcium 5 assay kit (Molecular Devices, USA) was used for calcium mobilization assay. 293-GPR40 stable cells (kindly provided by Prof. Naiming Zhou of Zhejiang University, Hanzhou, China) or 293 cells transient transfected with GPR120 were seeded at 50,000 cells per well in black-walled clear-bottomed 96-well plates (Costar). An equal volume of loading buffer containing Fluo 4-AM was added the following day and cells were incubated for 1 h before stimulated with compounds. Increase of the intracellular Ca^2+ concentration was monitored by Flexstation 3 system (Molecular Devices, USA).
(§1) Fig 1 WB403 activated TGR5 and promoted active GLP-1 secretion. (A) WB403 stimulated hTGR5 in CRE-luciferase report system at the concentration range of 1–20 μmol/l. (B) WB403 stimulated hTGR5 specific cAMP accumulation at the concentration range of 1–50 μmol/l. n = 3. **p<0.01, ***p<0.001 vs. DMSO (+TGR5) group. (C) The hTGR5 targeted CRE-luciferase activity of WB403 and ZY403. […] (D) Effect of WB403 and ZY403 on gallbladders of mice. Normal mice were fasted overnight and treated with compounds (200 mg/kg) or vehicle (DMSO) by ip injection. Gallbladders (GB) were removed 30 min later and volumes measured then normalized to body weight (B.W.). n = 10. **p<0.01 vs. vehicle group. (E) Structure of WB403 and ZY403. WB403 promoted GLP-1 secretion in NCI-H716 cells (F), primary enterocytes (G), and MIN6 cells (H). n = 3. *p<0.05, **p<0.01, ***p<0.001 vs. vehicle group. (I) WB403 promoted GLP-1 in ICR mice. n = 5. **p<0.01 vs. vehicle group. Values represent mean ± SEM.

gallbladders of mice = assay: gallbladder filling in normal mice; type: in vivo; conditions: 200 mg/kg ip, normal mice fasted overnight, gallbladders removed 30 min later, n = 10
Source text: as §1

NCI-H716 cells = assay: active GLP-1 secretion in NCI-H716 cells; type: cell-based, human; conditions: 10 μmol/l, 30 min
Method: Endocrine differentiation was induced by seeding NCI-H716 cells in plates coated with Matrigel (Becton Dickinson). Cells were washed with RPMI-1640 medium without FBS and incubated in the same medium containing indicated compounds at 10 μmol/l. The condition medium was collected after 30 min. GLP-1 secretion in MIN6 or primary enterocytes was conducted similarly. To isolate primary enterocytes, ileum or colon was cut into 2 cm length, rinsed by PBS (pH7.2∼7.4) before dispersed in 10 mmol/l EDTA/PBS (pH7.4) for 15 min at room temperature, followed by pipetting up and down. Enterocytes were collected by filtration through a 70 μm cell strainer. To study the effect of WB403 on GLP-1 secretion in vivo, mice in group of three were fasted overnight and orally received 0, 50, 100 mg/kg of WB403 dispersed in 0.5% CMC with a DPP-4 inhibitor (5 mg/kg). There were 5 animals in each group. 2 g/kg glucose was administrated 30 min later and blood was collected 10 min after glucose challenge.
The GLP-1 (active) ELISA kit was purchased from Millipore, and insulin ELISA kit was from Mercodia. For quantitative determination of cAMP, a competitive enzyme immunoassay kit from R&D system was used. All immunoassays were performed according to manufacturers’ instructions.

db/db mice = assay: pancreas histology (H&E, IHC) of treated db/db mice; type: in vivo
Method: Analysis of islet cell mass was performed using conventional methods. In brief, mice were sacrificed by cervical dislocation. The body part of the pancreas was rapidly excised, fixed in 10% neutral buffered formalin solution for 24 h and embedded in paraffin, then sectioned at 5 μm ready for hematoxylin and eosin (H&E) staining and immunohistochemistry staining (IHC). The latter was carried out using rabbit anti-insulin polyclonal antibody (Cat. no. 4590, 1:600) and rabbit anti-glucagon monoclonal antibody (Cat. no. 8233s, 1:200) from Cell Signaling Technology.
Fig 5 WB403 preserved the mass of pancreatic β-cells and normal distribution of α and β-cells. (A) H&E staining of pancreas from db/db mice, and statistical result. Islets were sized by the Image J analysis software on alternated pancreatic sections spaced each by 100 μm. (B) Immunohistochemical analysis of pancreatic sections by anti-insulin antibody or anti-glucagon antibody. (C) H&E staining of pancreas from HFD/STZ mice, and statistical result. Results are representative islets from each group. 1–5 in the column graph on the right represents normal mice, diabetic mice treated with vehicle, WB403 50 mg/kg, WB403 100 mg/kg, sitagliptin 100 mg/kg respectively (n = 5). *p<0.05, **p<0.01, ***p<0.001 vs. diabetes-vehicle group.

SMILES: C[C@H](CCC(=O)O)[C@H]1CC[C@H]2[C@@H]3[C@H](O)C[C@@H]4C[C@H](O)CC[C@]4(C)[C@H]3C[C@H](O)[C@]12C [CA, cholicacid]
- EC50 (TGR5): 7.72 µM

- EC50 (hTGR5; CRE-luciferase, 293T cells, Fig 1C, read-out: EC50, hTGR5 targeted CRE-luciferase activity): 1300 nM
- TGR5 luciferase activity in primary screen (fold increase compared to DMSO control) (hTGR5; screen of 100 compounds, S1 Fig): highest luciferase activity
- gallbladder filling (gallbladders of mice): caused gallbladder filling
SMILES: CCc1cc(-c2nc(CCOCc3ccc(Br)cc3)cs2)ccn1 [ZY403]
- GLP-1 stimulation in NCI-H716 cells (NCI-H716 cells): did not show a strong stimulation for GLP-1 activity

SMILES: N[C@@H](CC(=O)N1CCn2c(nnc2C(F)(F)F)C1)Cc1cc(F)c(F)cc1F [sitagliptin, sitagliptin phosphate, reference compound]
- islet area vs vehicle (db/db mice; H&E, after 4-week treatment): bigger islet area as compared to the vehicle mice, though no significant difference was found
- α-cell and β-cell distribution in islets (db/db mice; IHC anti-insulin / anti-glucagon): significantly reduced α-cell in the islet core area and restored the normal cell distribution pattern
